The values below come from patent US20190134234A1, “COMPOSITION FOR STABILIZING RADIOCHEMICAL PURITY OF [18F] FLUORO-DOPA AND METHOD FOR PREPARING SAME” (CI-CO HEALTHCARE CO., LTD., priority 2015, published 2019).

Data set [1] is described as follows: Radiochemical purity of [18F]FDG by TLC after pH adjustment, standing at room temperature. In kind it is physicochemical. As to conditions: for radiochemical purity: room temperature. How it is done: [^18F]FDG (radiochemical purity 100%) was prepared according to known procedure (Ind. J. Appl. Radiatl Isot 35 1984 985-986) was formulated with physiological saline and hydrogen ion concentration was adjusted to 6, 7, and 8, respectively, using sodium bicarbonate, and then was allowed to stand at room temperature for 0, 2, 4, and 6 hours.

Data set [2] is described as follows: Radiochemical purity by HPLC after neutralization with sodium bicarbonate, standing at room temperature. The class given is physicochemical. Particulars: for radiochemical purity: room temperature; for impurities generated (HPLC chromatogram): pH 7, room temperature, no ethanol. How it is done:
[^18F]fluoro-dopa (radiochemical purity 100%) was prepared according to known procedures (see Appl. Radiat. Isot. 672009 1650-1653), the initial hydrogen ion concentration of the prepared [^18F]fluoro-dopa (radiochemical purity 100%) is 4. This was formulated into physiological saline, and hydrogen ion concentration was adjusted to 6, 7, and 8, respectively, using sodium bicarbonate. Each time the solution was allowed to stand at room temperature (or at room temperature) for 0, 2, 4 and 6 hours, high-performance liquid chromatograph (HPLC) was used to measure the radiochemical purity. […]
[^18F]fluoro-dopa (radiochemical purity 100%) was prepared according to known procedures (see: Appl. Radiat. Isot. 67 2009 1650-1653), and the hydrogen ion concentration was adjusted to 7 (pH 7) using sodium bicarbonate after preparation with physiological saline. The determination of whether the radiochemical purity was generated was confirmed by measurement using HPLC (high-performance liquid chromatography) after 2 and 6 hours at room temperature. The results are illustrated in FIGS. 1 and 2. […]

The conditions of data set [3]: IASOdopa SPC; cited from earlier work.

With `OC[C@H]1OC(O)[C@H]([18F])[C@@H](O)[C@@H]1O` (some centres unmarked) [[^18F]FDG], the radiochemical purity in data set [1] (pH 6, 0 hour) was 99.07%; in data set [1] (pH 6, 2 hours), 98.04%; in data set [1] (pH 6, 4 hours), 98.12%; in data set [1] (pH 6, 6 hours), 99.12%; in data set [1] (pH 7, 0 hour), 99.23%; in data set [1] (pH 7, 2 hours), 100%. Further, the radiochemical purity in data set [1] (pH 7, 4 hours) is given as 99.46%; in data set [1] (pH 7, 6 hours), 98.12%; in data set [1] (pH 8, 0 hour), 99.78%; in data set [1] (pH 8, 2 hours), 99.01%; in data set [1] (pH 8, 4 hours), 99.89%; in data set [1] (pH 8, 6 hours), 100%. For the same compound, in data set [1] (pH 6 to 8, physiological saline, up to 6 hours), the “radiochemical purity over time at a neutral pH” value is listed as no less than 90%.
`Cc1cn([C@H]2C[C@H]([18F])[C@@H](CO)O2)c(=O)[nH]c1=O` [[^18F]FLT]: the radiochemical purity in data set [2] (pH 6, 0 hour, HPLC) stood at 100%; in data set [2] (pH 6, 2 hours, HPLC), 100%; in data set [2] (pH 6, 4 hours, HPLC), 99.78%; in data set [2] (pH 6, 6 hours, HPLC), 100%; in data set [2] (pH 7, 0 hour, HPLC), 100%; in data set [2] (pH 7, 2 hours, HPLC), 100%. For the same compound, the radiochemical purity in data set [2] (pH 7, 4 hours, HPLC) is 100%; in data set [2] (pH 7, 6 hours, HPLC) it was 100%; in data set [2] (pH 8, 0 hour, HPLC), 99.15%; in data set [2] (pH 8, 2 hours, HPLC), 100%; in data set [2] (pH 8, 4 hours, HPLC), 99.29%; in data set [2] (pH 8, 6 hours, HPLC) it was 100%. Further, the “radiochemical purity over time at a neutral pH” value in data set [2] (pH 6 to 8, physiological saline, up to 6 hours, HPLC) is given as no less than 90%.
For the compound `N[C@@H](Cc1cc(O)c(O)cc1[18F])C(=O)O` [[^18F]fluoro-dopa, L-6-[^18F]FLUORO-3,4-DIHYDROXYPHENYLALANINE], the radiochemical purity in data set [2] (pH 6, 0 hour, HPLC) was 100%; in data set [2] (pH 6, 2 hours, HPLC), 96.66%; in data set [2] (pH 6, 4 hours, HPLC) it was 92.6%; in data set [2] (pH 6, 6 hours, HPLC), 87.95%; in data set [2] (pH 7, 0 hour, HPLC) it was 100%; in data set [2] (pH 7, 2 hours, HPLC), 92.02%. Further, the radiochemical purity in data set [2] (pH 7, 4 hours, HPLC) was determined as 78.67%; in data set [2] (pH 7, 6 hours, HPLC), 63.81%; in data set [2] (pH 8, 0 hour, HPLC), 99.73%; in data set [2] (pH 8, 2 hours, HPLC) it was 91.14%; in data set [2] (pH 8, 4 hours, HPLC), 76.58%; in data set [2] (pH 8, 6 hours, HPLC), 51.78%. The “impurities generated (HPLC chromatogram)” value in data set [2] (2 hours after neutralization) is “the first impurity (IMP 1) was generated”; in data set [2] (6 hours after neutralization), “the first impurity (IMP 1) and the second purity (IMP 2) were generated”. Also, in data set [3], the “pH at which it is oxidized” value was no less than 4.5.
